Experimental data as given in patent US7901498B2, “Trisazo compound, ink composition, printing method and colored product” (Nippon Kayaku Kabushiki Kaisha, priority 2007, dated 2011).

Legend:
[1] = Ozone gas fastness test of inkjet-printed images (coloring matter residual rate); assay type: physicochemical; details: 24 hours, ozone 10 ppm; for Ozone gas fastness: 60% RH, 24° C.
Procedure: (§1) The components described below were mixed to obtain a black ink composition of the present invention, and then foreign substances were filtered off using a 0.45 μm membrane filter. Hereinafter, the obtained ink composition was referred to as “ink”.
(§2) In addition, ion-exchanged water was used as water. In ink preparation, the pH of ink was adjusted to pH 7 to 9 with sodium hydroxide and after that, ion-exchanged water was added to make the total amount 100 parts.
(§3) Using each ink obtained in the above manner, inkjet printing was performed on three kinds of information recording sheet (inkjet special paper), glossy paper 1 [trade name: Professional Photopaper PR-101, manufactured by Canon Inc.], glossy paper 2 [trade name: Photo Paper CRISPIA (highly glossy), manufactured by Seiko-Epson Corporation], glossy paper 3 [trade name: Advanced Photo Paper (glossy), manufactured by Hewlett-Packard Development Company] by an inkjet printer (trade name: PIXUS® iP4100) manufactured by Canon Inc.
(§4) In printing, an image pattern was made so that several gradations in reflection density were obtained, and black printed matter was obtained.
(§5) Using a colorimeter (trade name: SpectroEye®) manufactured by GRETAG-MACBETH, change in printed image density was measured by measuring, after the test, the gradation part where the reflection density, D value, was nearest to 1.0 on each printed image before the test.
Using an ozone weatherometer manufactured by Suga Test Instruments Co., Ltd., each printed image was left for 24 hours under the conditions of an ozone concentration of 10 ppm, a humidity of 60% RH and a temperature of 24° C. After completion of the test, each printed image was measured by the above colorimeter and the coloring matter residual rate was calculated from the formula (reflection density after test/reflection density before test)×100 (%). The test results are evaluated according to the following criteria. • ◯: Residual rate is 70% or more. • Δ: Residual rate is 60% or more and less than 70%. • ×: Residual rate is less than 60%. 2) Light Fastness Test

[2] = Light fastness test of inkjet-printed images, xenon weatherometer (coloring matter residual rate); assay type: physicochemical; details: for Light fastness: 96 hours, illuminance 100,000 lux, 60% RH, 24° C.; for coloring matter residual rate, light fastness test: 96 hours xenon
Procedure: as §1, §2, §3, §4, §5
Using a low temperature xenon weatherometer (trade name: XL75) manufactured by Suga Test Instruments Co., Ltd., each printed image described above was irradiated for 96 hours under the conditions of a luxilluminance of 100,000, a humidity of 60% RH and a temperature of 24° C. and then measured using the above colorimeter, and the coloring matter residual rate of each image was calculated from the formula (reflection density after test/reflection density before test)×100 (%). The test results are evaluated according to the following criteria. • ◯: Residual rate is 85% or more. • Δ: Residual rate is 80% or more and less than 85%. • ×: Residual rate is less than 80%.

[3] = Glossy paper 3 (Advanced Photo Paper, Hewlett-Packard)
[4] = Glossy paper 1 (Professional Photopaper PR-101, Canon)
[5] = Glossy paper 2 (Photo Paper CRISPIA, Seiko-Epson)

| SMILES | coloring matter residual rate, ozone gas fastness test ([1]; on any glossy paper (1, 2, 3)) | Light fastness [2, 3] | coloring matter residual rate, light fastness test ([2]; glossy paper 1) | coloring matter residual rate, light fastness test ([2]; glossy paper 2) | Ozone gas fastness [1, 4] | Ozone gas fastness [1, 5] | Ozone gas fastness [1, 3] | Light fastness [2, 4] | Light fastness [2, 5] |
| --- | --- | --- | --- | --- | --- | --- | --- | --- | --- |
| O=C(O)c1cc(S(=O)(=O)O)ccc1N=Nc1cc(OCCO)c(N=Nc2c(S(=O)(=O)O)cc3c(S(=O)(=O)O)c(N=Nc4c(C(=O)O)nn(-c5ccc(S(=O)(=O)O)cc5)c4O)ccc3c2O)cc1OCCO [Comparative Example 1, reference compound] | less than 60% | Δ (Residual rate is 80% or more and less than 85%.) | less than 80% | less than 80% |  |  |  |  |  |
| CS(=O)(=O)O.Cc1cc(N=Nc2c(S(=O)(=O)O)cc3c(S(=O)(=O)O)c(N=Nc4c(C)c(C#N)c5nc6ccccc6n5c4O)ccc3c2O)c(OCCCS(=O)(=O)O)cc1N=Nc1nnc(SCCS(=O)(=O)O)s1 [Example 10] |  | ◯ (Residual rate is 85% or more.) |  |  | ◯ (Residual rate is 70% or more.) | ◯ (Residual rate is 70% or more.) | ◯ (Residual rate is 70% or more.) | ◯ (Residual rate is 85% or more.) | Δ (Residual rate is 80% or more and less than 85%.) |
| CS(=O)(=O)O.Cc1cc(N=Nc2c(S(=O)(=O)O)cc3c(S(=O)(=O)O)c(N=Nc4c(C)c(C#N)c5nc6ccccc6n5c4O)ccc3c2O)c(OCCCS(=O)(=O)O)cc1N=Nc1nc2c(S(=O)(=O)O)cc(S(=O)(=O)O)cc2s1 [Example 13] |  | ◯ (Residual rate is 85% or more.) |  |  | ◯ (Residual rate is 70% or more.) | ◯ (Residual rate is 70% or more.) | ◯ (Residual rate is 70% or more.) | Δ (Residual rate is 80% or more and less than 85%.) | ◯ (Residual rate is 85% or more.) |
| CS(=O)(=O)O.Cc1cc(N=Nc2c(S(=O)(=O)O)cc3c(S(=O)(=O)O)c(N=Nc4c(C)c(C#N)c5nc6ccccc6n5c4O)ccc3c2O)c(OCCCS(=O)(=O)O)cc1N=Nc1nc2c(S(=O)(=O)O)cc(S(C)(=O)=O)cc2s1 [Example 14] |  | ◯ (Residual rate is 85% or more.) |  |  | ◯ (Residual rate is 70% or more.) | ◯ (Residual rate is 70% or more.) | ◯ (Residual rate is 70% or more.) | ◯ (Residual rate is 85% or more.) | ◯ (Residual rate is 85% or more.) |
